In article PMC7891710, “The narrow-spectrum anthelmintic oxantel is a potent agonist of a novel acetylcholine receptor subtype in whipworms” (PLoS Pathogens, 2021):

Experiments:
[1] = biological target: T1, Tsu-ACR-16-like receptor (O-AChR) (Trichuris suis, UniProt A0A890W0I7); assay: two-electrode voltage clamp in Xenopus oocytes, agonist dose-response; format: cell-based
T1 construct: full-length Tsu-ACR-16-like (GenBank MT386096), homomeric channel co-expressed with Asu-RIC-3 in Xenopus laevis oocytes

[2] = biological target: T1, Tsu-ACR-16-like receptor (O-AChR); assay: two-electrode voltage clamp in Xenopus oocytes, agonist dose-response (partial, Imax […]); format: cell-based

T1 sequence (A0A890W0I7 entry or part of it): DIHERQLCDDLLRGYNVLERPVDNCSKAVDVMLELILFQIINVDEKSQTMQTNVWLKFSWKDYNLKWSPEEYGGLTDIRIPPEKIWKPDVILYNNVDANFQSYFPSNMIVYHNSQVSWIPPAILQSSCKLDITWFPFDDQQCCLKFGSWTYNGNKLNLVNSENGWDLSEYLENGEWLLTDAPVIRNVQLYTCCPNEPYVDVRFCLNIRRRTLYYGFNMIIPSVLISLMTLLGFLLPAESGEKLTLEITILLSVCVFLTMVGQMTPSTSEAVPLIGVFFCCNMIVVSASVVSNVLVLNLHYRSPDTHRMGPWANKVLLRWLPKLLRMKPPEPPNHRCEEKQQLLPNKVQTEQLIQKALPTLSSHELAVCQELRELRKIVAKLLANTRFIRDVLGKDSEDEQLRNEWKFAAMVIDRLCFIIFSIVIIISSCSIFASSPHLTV

SMILES | EC50 [1] [µM] | EC50 [2] [µM]
CC(=O)OCC[N+](C)(C)C [ACh, acetylcholine] | 14.5 | –
CN1CCCN=C1/C=C/c1cccc(O)c1 [oxa, oxantel] | 9.49 | –
CN1CCCN=C1/C=C/c1cccs1 [pyr, pyrantel] | – | 148
